Reference: PubChem BioAssay AID1963830 (Molecular Pharmacology Branch, DTP, NCI, 2024)

Tested on: 922993-354-T-J3-PDC complex spheroid viability
Test: Anticancer human tumor 922993-354-T-J3-PDC patient-derived endometrial carcinoma cell line growth inhibition [POLQ]
Settings: for IC50: curve of first compound; for viability, T/C: stronger effect = lower value
Method in brief: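 Patient-derived tumour cells were co-cultured with HUVEC and mesenchymal stem cells as multicellular spheroids at 37 °C. They were treated with POLQ inhibitors (novobiocin, ART-558, RP6685) alone or combined with other agents. Top concentrations were at or near clinical Cmax (otherwise 10 microM; SN-38 at 1 microM), decreasing in half-log steps.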

[1] = second compound 0.0316 µM, first compound 0.0316 µM
[2] = second compound 0.0316 µM, first compound 0.1 µM
[3] = second compound 0.1 µM, first compound 0.0316 µM
[4] = second compound 0.1 µM, first compound 0.1 µM
[5] = second compound 0.316 µM, first compound 0.0316 µM
[6] = second compound 0.316 µM, first compound 0.1 µM
[7] = second compound 1 µM, first compound 0.0316 µM
[8] = second compound 1 µM, first compound 0.1 µM
[9] = second compound 3.16 µM, first compound 0.0316 µM
[10] = second compound 3.16 µM, first compound 0.1 µM
[11] = second compound 10 µM, first compound 0.0316 µM
[12] = second compound 10 µM, first compound 0.1 µM
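Further: spheroids exposed to the agents for one week.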
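Wherever viability, T/C is given: 100% = DMSO vehicle control wells.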

C#Cc1c(F)ccc2cc(O)cc(-c3ncc4c(N5CC6CCC(C5)N6)nc(OCC56CCCN5CC(F)C6)nc4c3F)c12 (centres undefined) + Nc1ccc(C#CCN(C(=O)Cc2ncc(C(F)(F)F)cc2C(F)(F)F)c2ccc(F)cc2)nn1
IC50 (second compound 0.0316 µM): > 10000 nM | IC50 (second compound 0.1 µM): > 10000 nM | IC50 (second compound 0.316 µM): > 10000 nM | IC50 (second compound 1 µM): > 10000 nM | IC50 (second compound 3.16 µM): > 10000 nM | IC50 (second compound 10 µM): > 10000 nM | viability, T/C [1]: 109% | viability, T/C [2]: 106% | viability, T/C (second compound 0.0316 µM, first compound 0.316 µM): 104% | viability, T/C (second compound 0.0316 µM, first compound 1 µM): 102% | viability, T/C (second compound 0.0316 µM, first compound 3.16 µM): 104% | viability, T/C (second compound 0.0316 µM, first compound 10 µM): 102% | viability, T/C [3]: 105% | viability, T/C [4]: 101% | viability, T/C (second compound 0.1 µM, first compound 0.316 µM): 104% | viability, T/C (second compound 0.1 µM, first compound 1 µM): 101% | viability, T/C (second compound 0.1 µM, first compound 3.16 µM): 101% | viability, T/C (second compound 0.1 µM, first compound 10 µM): 102% | viability, T/C [5]: 109% | viability, T/C [6]: 108% | viability, T/C (second compound 0.316 µM, first compound 0.316 µM): 106% | viability, T/C (second compound 0.316 µM, first compound 1 µM): 103% | viability, T/C (second compound 0.316 µM, first compound 3.16 µM): 104% | viability, T/C (second compound 0.316 µM, first compound 10 µM): 102% | viability, T/C [7]: 105% | viability, T/C [8]: 107% | viability, T/C (second compound 1 µM, first compound 0.316 µM): 105% | viability, T/C (second compound 1 µM, first compound 1 µM): 106% | viability, T/C (second compound 1 µM, first compound 3.16 µM): 107% | viability, T/C (second compound 1 µM, first compound 10 µM): 98.2% | viability, T/C [9]: 103% | viability, T/C [10]: 106% | viability, T/C (second compound 3.16 µM, first compound 0.316 µM): 104% | viability, T/C (second compound 3.16 µM, first compound 1 µM): 104% | viability, T/C (second compound 3.16 µM, first compound 3.16 µM): 102% | viability, T/C (second compound 3.16 µM, first compound 10 µM): 100% | viability, T/C [11]: 94.3% | viability, T/C [12]: 99.9% | viability, T/C (second compound 10 µM, first compound 0.316 µM): 100% | viability, T/C (second compound 10 µM, first compound 1 µM): 99.1% | viability, T/C (second compound 10 µM, first compound 3.16 µM): 96.9% | viability, T/C (second compound 10 µM, first compound 10 µM): 92.5%

Cn1ncnc1[C@H]1c2n[nH]c(=O)c3cc(F)cc(c23)N[C@@H]1c1ccc(F)cc1 + Cc1cccc(N(C)C(=O)C2C(O)CCN2c2nc(C)cc(C(F)(F)F)c2C#N)c1
IC50 (second compound 0.0316 µM): > 100 nM | IC50 (second compound 0.1 µM): > 100 nM | IC50 (second compound 0.316 µM): > 100 nM | IC50 (second compound 1 µM): > 100 nM | IC50 (second compound 3.16 µM): 83 nM | IC50 (second compound 10 µM): 30.7 nM | viability, T/C (second compound 0.0316 µM, first compound 0.000316 µM): 97.8% | viability, T/C (second compound 0.0316 µM, first compound 0.001 µM): 95.5% | viability, T/C (second compound 0.0316 µM, first compound 0.00316 µM): 111% | viability, T/C (second compound 0.0316 µM, first compound 0.01 µM): 98.3% | viability, T/C [1]: 99% | viability, T/C [2]: 70.2% | viability, T/C (second compound 0.1 µM, first compound 0.000316 µM): 108% | viability, T/C (second compound 0.1 µM, first compound 0.001 µM): 105% | viability, T/C (second compound 0.1 µM, first compound 0.00316 µM): 94.2% | viability, T/C (second compound 0.1 µM, first compound 0.01 µM): 94.4% | viability, T/C [3]: 90.2% | viability, T/C [4]: 74.9% | viability, T/C (second compound 0.316 µM, first compound 0.000316 µM): 107% | viability, T/C (second compound 0.316 µM, first compound 0.001 µM): 106% | viability, T/C (second compound 0.316 µM, first compound 0.00316 µM): 102% | viability, T/C (second compound 0.316 µM, first compound 0.01 µM): 106% | viability, T/C [5]: 91.2% | viability, T/C [6]: 67.2% | viability, T/C (second compound 1 µM, first compound 0.000316 µM): 107% | viability, T/C (second compound 1 µM, first compound 0.001 µM): 108% | viability, T/C (second compound 1 µM, first compound 0.00316 µM): 111% | viability, T/C (second compound 1 µM, first compound 0.01 µM): 96.8% | viability, T/C [7]: 97.4% | viability, T/C [8]: 66.2% | viability, T/C (second compound 3.16 µM, first compound 0.000316 µM): 100% | viability, T/C (second compound 3.16 µM, first compound 0.001 µM): 101% | viability, T/C (second compound 3.16 µM, first compound 0.00316 µM): 99.9% | viability, T/C (second compound 3.16 µM, first compound 0.01 µM): 96.8% | viability, T/C [9]: 92.3% | viability, T/C [10]: 41.6% | viability, T/C (second compound 10 µM, first compound 0.000316 µM): 111% | viability, T/C (second compound 10 µM, first compound 0.001 µM): 97.4% | viability, T/C (second compound 10 µM, first compound 0.00316 µM): 99% | viability, T/C (second compound 10 µM, first compound 0.01 µM): 72.9% | viability, T/C [11]: 49.8% | viability, T/C [12]: 32%
